Patent US12410208B2, “(2-acetamidyl)thio-beta-D-galactopyranoside derivatives” (Idorsia Pharmaceuticals Ltd, priority 2020, dated 2025)

Legend:
[1] = target: biotinylated human Gal-3 (hGal-3) (Homo sapiens, UniProt P17931); assay: Competitive binding assay: biotinylated hGal-3 binding to microplate-adsorbed asialofetuin (ASF), spectrophotometric; conditions: Gal-3 inhibition, Table 5; read-out: IC50
Procedure, shortened: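 Competitive binding of biotinylated hGal-3 to plate-adsorbed asialofetuin was measured with serially diluted compounds over 3 h at 4° C. Bound protein was detected with streptavidin-peroxidase and ABTS substrate by absorbance. IC50 values are means of several measurements.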

human Gal-1 (hGal-1) = human Gal-1 (hGal-1) (Homo sapiens, UniProt P09382); assay: Competitive binding assay: biotinylated hGal-1 binding to microplate-adsorbed asialofetuin (ASF), spectrophotometric; conditions: hGal-1 binding to asialofetuin; Table 15; R and S epimers of selected Examples also listed; read-out: IC50 (Galectin-1 inhibition)
Chain of human Gal-1 (hGal-1) (P09382 whole entry): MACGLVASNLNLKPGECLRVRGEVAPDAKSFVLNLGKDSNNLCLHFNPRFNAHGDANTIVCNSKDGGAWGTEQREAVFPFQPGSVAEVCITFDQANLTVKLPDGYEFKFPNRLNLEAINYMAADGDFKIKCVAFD
Procedure, shortened: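 Biotinylated hGal-1 (300-1000 ng/mL) incubated with compound on asialofetuin-coated plates 3 hours at 4 °C, washed, then streptavidin-peroxidase (80 ng/mL) 1 hour at 4 °C. ABTS substrate read spectrophotometrically; IC50 reported as mean of several measurements.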

Chain of biotinylated human Gal-3 (hGal-3) (P17931 whole entry): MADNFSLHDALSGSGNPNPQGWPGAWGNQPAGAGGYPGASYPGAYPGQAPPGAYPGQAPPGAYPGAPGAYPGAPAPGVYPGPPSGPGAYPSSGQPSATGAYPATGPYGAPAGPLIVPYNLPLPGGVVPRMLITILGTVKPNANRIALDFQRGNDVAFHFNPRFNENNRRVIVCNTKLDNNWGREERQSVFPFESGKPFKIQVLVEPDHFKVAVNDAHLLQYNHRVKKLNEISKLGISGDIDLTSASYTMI

SMILES: O=C(C(S[C@@H]1O[C@H](CO)[C@H](O)[C@H](n2cc(-c3cc(F)c(F)c(F)c3)nn2)[C@H]1O)C1(O)CC(F)(F)C1)N1CCC1 (stereo partly drawn) [Example 2.33.206., 1-(Azetidin-1-yl)-2-(3,3-difluoro-1-hydroxycyclobutyl)-2-(((2S,3R,4S,5R,6R)-3,5-dihydroxy-6-(hydroxymethyl)-4-(4-(3,4,5-trifluorophenyl)-1H-1,2,3-triazol-1-yl)tetrahydro-2H-pyran-2-yl)thio)ethan-1-one]
- IC50 [1]: 580 nM
- IC50 (human Gal-1 (hGal-1)): 1710 nM

SMILES: CN(CC1CC1)C(=O)[C@H](S[C@@H]1O[C@H](CO)[C@H](O)[C@H](n2cc(-c3cc(F)c(F)c(F)c3)nn2)[C@H]1O)C1(O)CC(F)(F)C1 [Example 2.33.218R., (R)-N-(Cyclopropylmethyl)-2-(3,3-difluoro-1-hydroxycyclobutyl)-2-(((2S,3R,4S,5R,6R)-3,5-dihydroxy-6-(hydroxymethyl)-4-(4-(3,4,5-trifluorophenyl)-1H-1,2,3-triazol-1-yl)tetrahydro-2H-pyran-2-yl)thio)-N-methylacetamide]
- IC50 [1]: 440 nM
- IC50 (human Gal-1 (hGal-1)): 580 nM

SMILES: CN(CC1CC1)C(=O)[C@@H](S[C@@H]1O[C@H](CO)[C@H](O)[C@H](n2cc(-c3cc(F)c(F)c(F)c3)nn2)[C@H]1O)C1(O)CC(F)(F)C1 [Example 2.33.218S., (S)-N-(Cyclopropylmethyl)-2-(3,3-difluoro-1-hydroxycyclobutyl)-2-(((2S,3R,4S,5R,6R)-3,5-dihydroxy-6-(hydroxymethyl)-4-(4-(3,4,5-trifluorophenyl)-1H-1,2,3-triazol-1-yl)tetrahydro-2H-pyran-2-yl)thio)-N-methylacetamide]
- IC50 [1]: 40 nM
- IC50 (human Gal-1 (hGal-1)): 60 nM

SMILES: CCN(C)C(=O)C(S[C@@H]1O[C@H](CO)[C@H](O)[C@H](n2cc(-c3cc(F)c(F)c(F)c3)nn2)[C@H]1O)C1(O)CCC1 (stereo partly drawn) [Example 2.34.203., 2-(((2S,3R,4S,5R,6R)-3,5-Dihydroxy-6-(hydroxymethyl)-4-(4-(3,4,5-trifluorophenyl)-1H-1,2,3-triazol-1-yl)tetrahydro-2H-pyran-2-yl)thio)-N-ethyl-2-(1-hydroxycyclobutyl)-N-methylacetamide]
- IC50 [1]: 400 nM
- IC50 (human Gal-1 (hGal-1)): 640 nM

SMILES: CCN(C)C(=O)[C@H](S[C@@H]1O[C@H](CO)[C@H](O)[C@H](n2cc(-c3cc(F)c(F)c(F)c3)nn2)[C@H]1O)C1(O)CCC1 [Example 2.34.203R., (R)-2-(((2S,3R,4S,5R,6R)-3,5-Dihydroxy-6-(hydroxymethyl)-4-(4-(3,4,5-trifluorophenyl)-1H-1,2,3-triazol-1-yl)tetrahydro-2H-pyran-2-yl)thio)-N-ethyl-2-(1-hydroxycyclobutyl)-N-methylacetamide]
- IC50 [1]: 3580 nM
- IC50 (human Gal-1 (hGal-1)): 28300 nM

SMILES: CCN(C)C(=O)[C@@H](S[C@@H]1O[C@H](CO)[C@H](O)[C@H](n2cc(-c3cc(F)c(F)c(F)c3)nn2)[C@H]1O)C1(O)CCC1 [Example 2.34.203S., (S)-2-(((2S,3R,4S,5R,6R)-3,5-Dihydroxy-6-(hydroxymethyl)-4-(4-(3,4,5-trifluorophenyl)-1H-1,2,3-triazol-1-yl)tetrahydro-2H-pyran-2-yl)thio)-N-ethyl-2-(1-hydroxycyclobutyl)-N-methylacetamide]
- IC50 [1]: 120 nM
- IC50 (human Gal-1 (hGal-1)): 170 nM

SMILES: O=C(C(S[C@@H]1O[C@H](CO)[C@H](O)[C@H](n2cc(-c3cc(F)c(F)c(F)c3)nn2)[C@H]1O)C1(O)CCC1)N1CCC1 (stereo partly drawn) [Example 2.34.206., 1-(Azetidin-1-yl)-2-(((2S,3R,4S,5R,6R)-3,5-dihydroxy-6-(hydroxymethyl)-4-(4-(3,4,5-trifluorophenyl)-1H-1,2,3-triazol-1-yl)tetrahydro-2H-pyran-2-yl)thio)-2-(1-hydroxycyclobutyl)ethan-1-one]
- IC50 [1]: 1200 nM
- IC50 (human Gal-1 (hGal-1)): 2710 nM

SMILES: O=C([C@H](S[C@@H]1O[C@H](CO)[C@H](O)[C@H](n2cc(-c3cc(F)c(F)c(F)c3)nn2)[C@H]1O)C1(O)CCC1)N1CCC1 [Example 2.34.206R., (R)-1-(Azetidin-1-yl)-2-(((2S,3R,4S,5R,6R)-3,5-dihydroxy-6-(hydroxymethyl)-4-(4-(3,4,5-trifluorophenyl)-1H-1,2,3-triazol-1-yl)tetrahydro-2H-pyran-2-yl)thio)-2-(1-hydroxycyclobutyl)ethan-1-one]
- IC50 [1]: 1800 nM
- IC50 (human Gal-1 (hGal-1)): 6910 nM

SMILES: O=C([C@@H](S[C@@H]1O[C@H](CO)[C@H](O)[C@H](n2cc(-c3cc(F)c(F)c(F)c3)nn2)[C@H]1O)C1(O)CCC1)N1CCC1 [Example 2.34.206S., (S)-1-(Azetidin-1-yl)-2-(((2S,3R,4S,5R,6R)-3,5-dihydroxy-6-(hydroxymethyl)-4-(4-(3,4,5-trifluorophenyl)-1H-1,2,3-triazol-1-yl)tetrahydro-2H-pyran-2-yl)thio)-2-(1-hydroxycyclobutyl)ethan-1-one]
- IC50 [1]: 340 nM
- IC50 (human Gal-1 (hGal-1)): 620 nM

SMILES: O=C(C(S[C@@H]1O[C@H](CO)[C@H](O)[C@H](n2cc(-c3cc(F)c(F)c(F)c3)nn2)[C@H]1O)C1(O)CCC1)N1CCCCC1 (stereo partly drawn) [Example 2.34.208., 2-(((2S,3R,4S,5R,6R)-3,5-Dihydroxy-6-(hydroxymethyl)-4-(4-(3,4,5-trifluorophenyl)-1H-1,2,3-triazol-1-yl)tetrahydro-2H-pyran-2-yl)thio)-2-(1-hydroxycyclobutyl)-1-(piperidin-1-yl)ethan-1-one]
- IC50 [1]: 380 nM
- IC50 (human Gal-1 (hGal-1)): 520 nM

SMILES: O=C([C@H](S[C@@H]1O[C@H](CO)[C@H](O)[C@H](n2cc(-c3cc(F)c(F)c(F)c3)nn2)[C@H]1O)C1(O)CCC1)N1CCCCC1 [Example 2.34.208R., (R)-2-(((2S,3R,4S,5R,6R)-3,5-Dihydroxy-6-(hydroxymethyl)-4-(4-(3,4,5-trifluorophenyl)-1H-1,2,3-triazol-1-yl)tetrahydro-2H-pyran-2-yl)thio)-2-(1-hydroxycyclobutyl)-1-(piperidin-1-yl)ethan-1-one]
- IC50 [1]: 3240 nM
- IC50 (human Gal-1 (hGal-1)): 11500 nM

SMILES: O=C([C@@H](S[C@@H]1O[C@H](CO)[C@H](O)[C@H](n2cc(-c3cc(F)c(F)c(F)c3)nn2)[C@H]1O)C1(O)CCC1)N1CCCCC1 [Example 2.34.208S., (S)-2-(((2S,3R,4S,5R,6R)-3,5-Dihydroxy-6-(hydroxymethyl)-4-(4-(3,4,5-trifluorophenyl)-1H-1,2,3-triazol-1-yl)tetrahydro-2H-pyran-2-yl)thio)-2-(1-hydroxycyclobutyl)-1-(piperidin-1-yl)ethan-1-one]
- IC50 [1]: 140 nM
- IC50 (human Gal-1 (hGal-1)): 140 nM

SMILES: CN(CC1CC1)C(=O)C(S[C@@H]1O[C@H](CO)[C@H](O)[C@H](n2cc(-c3cc(F)c(F)c(F)c3)nn2)[C@H]1O)C1(O)CCC1 (stereo partly drawn) [Example 2.34.218., N-(Cyclopropylmethyl)-2-(((2S,3R,4S,5R,6R)-3,5-dihydroxy-6-(hydroxymethyl)-4-(4-(3,4,5-trifluorophenyl)-1H-1,2,3-triazol-1-yl)tetrahydro-2H-pyran-2-yl)thio)-2-(1-hydroxycyclobutyl)-N-methylacetamide]
- IC50 [1]: 310 nM
- IC50 (human Gal-1 (hGal-1)): 220 nM

SMILES: CN(CC1CC1)C(=O)[C@H](S[C@@H]1O[C@H](CO)[C@H](O)[C@H](n2cc(-c3cc(F)c(F)c(F)c3)nn2)[C@H]1O)C1(O)CCC1 [Example 2.34.218R., (R)-N-(Cyclopropylmethyl)-2-(((2S,3R,4S,5R,6R)-3,5-dihydroxy-6-(hydroxymethyl)-4-(4-(3,4,5-trifluorophenyl)-1H-1,2,3-triazol-1-yl)tetrahydro-2H-pyran-2-yl)thio)-2-(1-hydroxycyclobutyl)-N-methylacetamide]
- IC50 [1]: 6080 nM
- IC50 (human Gal-1 (hGal-1)): 20900 nM

SMILES: CN(CC1CC1)C(=O)[C@@H](S[C@@H]1O[C@H](CO)[C@H](O)[C@H](n2cc(-c3cc(F)c(F)c(F)c3)nn2)[C@H]1O)C1(O)CCC1 [Example 2.34.218S., (S)-N-(Cyclopropylmethyl)-2-(((2S,3R,4S,5R,6R)-3,5-dihydroxy-6-(hydroxymethyl)-4-(4-(3,4,5-trifluorophenyl)-1H-1,2,3-triazol-1-yl)tetrahydro-2H-pyran-2-yl)thio)-2-(1-hydroxycyclobutyl)-N-methylacetamide]
- IC50 [1]: 60 nM
- IC50 (human Gal-1 (hGal-1)): 70 nM

SMILES: CN(CC(F)(F)F)C(=O)C(S[C@@H]1O[C@H](CO)[C@H](O)[C@H](n2cc(-c3cc(F)c(F)c(F)c3)nn2)[C@H]1O)C1(O)CCC1 (stereo partly drawn) [Example 2.34.219., 2-(((2S,3R,4S,5R,6R)-3,5-Dihydroxy-6-(hydroxymethyl)-4-(4-(3,4,5-trifluorophenyl)-1H-1,2,3-triazol-1-yl)tetrahydro-2H-pyran-2-yl)thio)-2-(1-hydroxycyclobutyl)-N-methyl-N-(2,2,2-trifluoroethyl)acetamide]
- IC50 [1]: 260 nM
- IC50 (human Gal-1 (hGal-1)): 640 nM

SMILES: CN(CC(F)(F)F)C(=O)[C@H](S[C@@H]1O[C@H](CO)[C@H](O)[C@H](n2cc(-c3cc(F)c(F)c(F)c3)nn2)[C@H]1O)C1(O)CCC1 [Example 2.34.219R., (R)-2-(((2S,3R,4S,5R,6R)-3,5-Dihydroxy-6-(hydroxymethyl)-4-(4-(3,4,5-trifluorophenyl)-1H-1,2,3-triazol-1-yl)tetrahydro-2H-pyran-2-yl)thio)-2-(1-hydroxycyclobutyl)-N-methyl-N-(2,2,2-trifluoroethyl)acetamide]
- IC50 [1]: 7840 nM
- IC50 (human Gal-1 (hGal-1)): 33600 nM

SMILES: CN(CC(F)(F)F)C(=O)[C@@H](S[C@@H]1O[C@H](CO)[C@H](O)[C@H](n2cc(-c3cc(F)c(F)c(F)c3)nn2)[C@H]1O)C1(O)CCC1 [Example 2.34.219S., (S)-2-(((2S,3R,4S,5R,6R)-3,5-Dihydroxy-6-(hydroxymethyl)-4-(4-(3,4,5-trifluorophenyl)-1H-1,2,3-triazol-1-yl)tetrahydro-2H-pyran-2-yl)thio)-2-(1-hydroxycyclobutyl)-N-methyl-N-(2,2,2-trifluoroethyl)acetamide]
- IC50 [1]: 110 nM
- IC50 (human Gal-1 (hGal-1)): 120 nM
